Data from patent US8232289B2, “Spiropiperidine compounds as ORL-1 receptor antagonists” (Eli Lilly and Company, priority 2009, dated 2012).
Read-outs that look alike come from different tables or passages of the source.

How the values were obtained:
Delta Opioid = Delta Opioid (Homo sapiens, UniProt P41143); assay: Radioligand binding selectivity, Delta Opioid
Excerpt: (§1) Similarly, Ki for the mu, kappa and delta opioids, serotonin, dopamine, adrenergic, mucarinic, and histamine receptors, as well as binding to the norepinephrine transporter, sodium channel, chloride channel, and calcium channel may be determined using membranes expressing the desired receptor/transporter/channels and appropriate corresponding radioligand competitor molecules.

[1] = target: T1, human ERG (hERG) K+ channel (Homo sapiens, UniProt Q12809); assay: hERG channel [3H]astemizole binding assay
T1 construct: host or cells: HEK293 cells
T1 sequence (Q12809 whole entry): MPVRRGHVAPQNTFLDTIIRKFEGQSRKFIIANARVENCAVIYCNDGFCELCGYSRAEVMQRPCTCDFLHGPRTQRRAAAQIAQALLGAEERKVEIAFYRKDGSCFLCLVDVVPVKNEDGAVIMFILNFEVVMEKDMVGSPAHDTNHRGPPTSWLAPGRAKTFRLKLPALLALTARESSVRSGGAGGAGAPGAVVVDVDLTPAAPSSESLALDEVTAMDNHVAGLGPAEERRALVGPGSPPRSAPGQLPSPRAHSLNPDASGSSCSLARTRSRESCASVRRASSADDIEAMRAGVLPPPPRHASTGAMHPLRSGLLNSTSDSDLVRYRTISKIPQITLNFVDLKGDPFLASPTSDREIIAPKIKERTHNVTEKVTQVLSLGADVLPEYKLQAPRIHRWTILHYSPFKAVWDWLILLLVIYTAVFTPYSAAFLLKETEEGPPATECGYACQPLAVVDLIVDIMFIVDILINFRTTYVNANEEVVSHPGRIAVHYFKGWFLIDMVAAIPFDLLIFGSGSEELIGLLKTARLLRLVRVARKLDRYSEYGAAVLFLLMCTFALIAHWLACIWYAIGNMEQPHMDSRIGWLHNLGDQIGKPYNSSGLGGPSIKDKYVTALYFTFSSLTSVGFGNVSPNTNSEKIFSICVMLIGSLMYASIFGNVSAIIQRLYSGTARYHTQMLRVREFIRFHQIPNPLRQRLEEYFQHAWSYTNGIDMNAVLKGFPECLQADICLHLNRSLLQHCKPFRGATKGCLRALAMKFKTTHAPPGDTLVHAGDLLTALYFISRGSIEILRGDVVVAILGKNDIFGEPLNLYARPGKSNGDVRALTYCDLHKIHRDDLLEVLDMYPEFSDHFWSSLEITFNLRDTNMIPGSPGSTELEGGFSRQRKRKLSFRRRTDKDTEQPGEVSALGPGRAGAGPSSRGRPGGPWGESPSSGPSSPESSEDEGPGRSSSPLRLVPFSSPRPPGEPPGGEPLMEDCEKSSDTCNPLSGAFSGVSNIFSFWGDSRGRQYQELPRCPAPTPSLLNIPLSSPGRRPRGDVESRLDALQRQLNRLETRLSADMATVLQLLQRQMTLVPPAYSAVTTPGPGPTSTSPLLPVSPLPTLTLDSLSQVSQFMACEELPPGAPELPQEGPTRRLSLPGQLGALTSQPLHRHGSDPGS
Method: Blockade of K^+-channel conductance in the heart is associated with cardiotoxicity in the form of QT-wave prolongation. The affinity (K) of the exemplified nociceptin receptor antagonists for the human ERG (hERG) K^+ channel is determined in HEK293 cells expressing cloned hERG using the hERG channel antagonist radioligand [3H]astemizole (2 nM final assay concentration) according to well known procedures (see for example Finlayson K, et al. (Eur J Pharmacol. 412(3):203-12, 2001) [3H]Astemizole binding assays are performed at the contract research company Cerep (Paris France) according to standard procedures.

[2] = tested on: wild type and ORL knockout mice; assay: Blockade of fasting-induced hyperphagia in mice; type: in vivo
Excerpt: Blockade of fasting-induced hyperphagia in rodents is an accepted model for hyperphagic eating disorders. […] Mice are individually housed a minimum of 3 days prior to the onset of testing to eliminate any effects of stress due to the change from group to individual housing. Three mice/genotype are randomly assigned to each treatment group on the test day. Pre-fast body weight measurements are taken, and food is then removed from cages overnight. Mice are fasted for approximately 15 hr. The next morning, the mice are given one of three doses of drug or vehicle via oral gavage 30 min. prior to gaining access to food. Drugs are dissolved in 20% Captisol dissolved in 25 mM phosphate buffer, pH 2.0. Measurements of body weight are taken immediately prior to drug treatment or 24 hr. after access to food is restored. […] Measurements of food intake are recorded 1 hr following access to food, as indicated, by weight of food remaining at 1 hr. It should be noted that food intake measured is during the light phase, a time during which mice are typically at rest and not normally eating. Following initial testing, mice are rested for 1 week with access to unlimited chow.

Mu Opioid = Mu Opioid (Homo sapiens, UniProt P35372); assay: Radioligand binding selectivity, Mu Opioid
Mu Opioid, sequence (P35372 whole entry): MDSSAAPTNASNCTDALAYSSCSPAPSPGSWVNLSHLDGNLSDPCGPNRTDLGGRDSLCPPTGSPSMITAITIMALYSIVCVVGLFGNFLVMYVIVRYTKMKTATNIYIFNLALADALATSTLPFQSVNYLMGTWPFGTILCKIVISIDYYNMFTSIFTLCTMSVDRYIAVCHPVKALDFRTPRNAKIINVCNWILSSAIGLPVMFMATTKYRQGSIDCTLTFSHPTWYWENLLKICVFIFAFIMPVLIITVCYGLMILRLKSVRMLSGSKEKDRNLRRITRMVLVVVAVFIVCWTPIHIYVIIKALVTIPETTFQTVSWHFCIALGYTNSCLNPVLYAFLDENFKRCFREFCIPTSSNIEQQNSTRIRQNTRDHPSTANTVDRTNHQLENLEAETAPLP
Excerpt: as §1

[3] = target: T2, nociceptin/ORL1 receptors (Rattus norvegicus, UniProt P35370); assay: In vivo receptor occupancy (LC/MS/MS, RO Tracer) in hypothalamus; design: species or system rats; conditions: for receptor occupancy at 3 mg/kg: rat hypothalamus, 3 mg/kg oral dose, after 6 hr.
T2 construct: from tissue; host or cells: rat hypothalamus (in vivo)
T2 sequence (P35370 whole entry): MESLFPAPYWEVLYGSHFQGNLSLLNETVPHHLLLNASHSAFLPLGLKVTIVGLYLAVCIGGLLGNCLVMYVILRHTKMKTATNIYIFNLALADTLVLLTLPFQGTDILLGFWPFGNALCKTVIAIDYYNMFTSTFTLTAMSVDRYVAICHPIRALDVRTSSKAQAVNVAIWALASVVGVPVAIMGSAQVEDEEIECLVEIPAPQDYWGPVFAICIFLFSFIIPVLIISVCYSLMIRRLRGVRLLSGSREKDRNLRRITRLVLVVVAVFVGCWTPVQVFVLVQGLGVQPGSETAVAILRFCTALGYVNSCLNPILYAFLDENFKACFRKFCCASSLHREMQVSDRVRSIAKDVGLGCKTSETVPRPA
Method: Receptor occupancy (RO) using LC/MS/MS has been established as a way to measure central target engagement of putative ORL-1 antagonist in vivo. Nociceptin/ORL1 receptor occupancy (RO) is measured in the hypothalamus, a structure which contains a high density of nociceptin/ORL1 binding sites that are inside the blood brain barrier, using a novel proprietary nociceptin/ORL1 antagonist RO tracer, 2-[(2-fluorophenyl)methyl]-3-(2-fluorospiro[4,5-dihydrothieno[2,3-c]pyran-7,4′-piperidine]-1′-yl)-N,N-dimethyl-propanamide, (RO Tracer). These measurements are made without the need for a radiolabeled tracer as previously published for other receptors with modifications (Chemet E, Martin L J, Li D, Need A B, Barth V N, Rash K S, Phebus L A. Use of LC/MS to assess brain tracer distribution in preclinical, in vivo receptor occupancy studies: dopamine D2, serotonin 2A and NK-1 receptors as examples. Life Sci. 78(4):340-6, 2005.). A positive correlation has been established between central nociceptin/ORL1 RO and efficacy in the modulation of the feeding behavior and forced swim test in rodents. Central nociceptin/ORL1 RO is measured at 6 or 24 hours following oral administration of the test compound to rats. Male Sprague-Dawley rats (Harlan Sprague-Dawley, Indianapolis, Ind.) are treated orally with a test compound, or vehicle (20% Captisol, 25 mM phosphate buffer, pH 2.0). At 6 or 24 hours following administration of test compound/vehicle, all animals are administered an intravenous, 3 ng/kg dose of RO Tracer. It is at the time of RO Tracer administration that RO is considered to be measured. Forty minutes after RO Tracer administration, rats are sacrificed by cervical dislocation and the hypothalamus is removed. The level of RO Tracer is measured in each tissue sample.
The centrally active literature reference standard (−)-cis-1-methyl-7-[[4-(2,6-dichlorophenyl)piperidin-1-yl]methyl]-6,7,8,9-tetrahydro-5H-benzocyclohepten-5-ol (SB612111, see Magdalena and Heisler, supra), a potent nociceptin/ORL1 receptor selective antagonist, is used as a positive control to establish the RO Tracer level associated with 100% nociceptin/ORL1 RO. […]
Hypothalamic samples are homogenized in 4 volumes (w/v) of acetonitrile containing 0.1% formic acid and centrifuged at 14,000 RPM for 16 min. […] Detection of RO Tracer is accomplished by monitoring the precursor to product ion transition with a mass to charge ratio (m/z) of 435 to 239, with levels quantified by comparison to standards prepared in brain tissue homogenates. Zero percent RO is calculated as the level of RO Tracer in the hypothalamus of vehicle-pretreated animals, which represents the sum of nonspecific and specific binding (all receptors available to the tracer). […]

[4] = wild type mice, oral gavage 30 min. prior to food, food intake at 1 hr

Delta Opioid, sequence (P41143 whole entry): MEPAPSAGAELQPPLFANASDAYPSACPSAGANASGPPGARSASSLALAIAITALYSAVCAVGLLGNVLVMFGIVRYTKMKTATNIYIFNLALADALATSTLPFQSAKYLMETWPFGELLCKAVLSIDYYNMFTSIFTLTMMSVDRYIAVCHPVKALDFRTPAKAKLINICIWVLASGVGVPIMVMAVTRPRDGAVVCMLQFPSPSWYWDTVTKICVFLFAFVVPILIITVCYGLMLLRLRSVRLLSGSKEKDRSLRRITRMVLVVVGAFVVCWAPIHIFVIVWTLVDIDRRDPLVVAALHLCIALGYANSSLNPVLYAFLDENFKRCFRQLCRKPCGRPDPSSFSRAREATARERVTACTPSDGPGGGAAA

Ki (Delta Opioid; read-out: Ki Delta Opioid) | Ki (Mu Opioid; read-out: Ki Mu Opioid) | in vivo plasma concentration necessary to produce 80 percent RO (EC80 RO) ([3]; nociceptin/ORL1 receptors in the CNS) | Structure (SMILES) | Ki (Delta Opioid) | Ki [1] | effect on fasting-induced hyperphagia ([2]; ORL-1 knockout mouse strain) | effect on fasting-induced hyperphagia [2, 4] | Ki (Mu Opioid) | receptor occupancy at 3 mg/kg [3] | Ki ([1]; HEK293 cells expressing cloned hERG, [3H]astemizole 2 nM, read-out: Ki hERG K+ channel)
– | – | – | O=C(O)C(O)C(O)C(=O)O.OCc1nn(-c2ncccc2F)cc1CN1CCC2(CC1)OCC(F)(F)c1cc(Cl)sc12 [Example 53, [4-[(2-Chloro-4,4-difluoro-spiro[5H-thieno[2,3-c]pyran-7,4′-piperidine]-1′-yl)methyl]-1-(3-fluoro-2-pyridyl)pyrazol-3-yl]methanol (L)-Tartrate] | > 0.479 µM | 8.6 µM | not observed | substantially block fasting-induced hyperphagia | > 0.451 µM | 83% | –
> 0.479 µM | > 0.451 µM | approximately 41 nM | Cc1nn(-c2ncccc2CO)cc1CN1CCC2(CC1)OCC(F)(F)c1cc(Cl)sc12 [Example 62, [2-[4-[(2-Chloro-4,4-difluoro-spiro[5H-thieno[2,3-c]pyran-7,4′-piperidine]-1′-yl)methyl]-3-methyl-pyrazol-1-yl]-3-pyridyl]methanol] | – | – | not observed | substantially block fasting-induced hyperphagia | – | 104% | 6.08 µM
– | – | – | Cc1nn(-c2ncccc2Cn2cccn2)cc1CN1CCC2(CC1)OCC(F)(F)c1cc(Cl)sc12.O=C(O)C(O)C(O)C(=O)O [Example 23, 2-Chloro-4,4-difluoro-1′-[[3-methyl-1-[3-(pyrazol-1-ylmethyl)-2-pyridyl]pyrazol-4-yl]methyl]spiro[5H-thieno[2,3-c]pyran-7,4′-piperidine] (L)-Tartrate] | > 0.479 µM | 1.21 µM | not observed | substantially block fasting-induced hyperphagia | > 0.451 µM | 80% | –
